Numbered stars: 1 amine (or outer) side, 2 acyl side, 3 side chain; on linkers, the order of the positions; unused ones are H or OH. Square brackets hold non-standard residues; d marks the D form. Primed or numbered codes have the meaning given here. Side chains are listed from the residue outwards. Ends that are not written are not given here. * marks the point of attachment. C18 diacid = O=C(O)CCCCCCCCCCCCCCCCC(=O)*; γGlu = O=C(O)[C@H](CCC(=O)[*:2])N[*:1]; Palmitoyl = CCCCCCCCCCCCCCCC(=O)*; Nle = CCCC[C@H](N)C(=O)O; PEG2′ = not defined here; Aib = CC(C)(N)C(=O)O
What was measured:
[1] = tested on: BDL-induced cholestasis hepatic fibrosis in rats; test: Bile duct ligation (BDL)-induced hepatic fibrosis in rats (biliary cirrhosis rat model); assay type: in vivo, SD rats; conditions: 50 μg/kg subcutaneous every two days, 14 days
Method: 1. Experimental Drugs: polypeptide compounds 3, 6, 7, 10, 17, 20, 37, 38, 39, 40, 44, 46, Obeticholic Acid (Abbr. OCA, CAS:459789-99-2, purchased from Zhejiang Warrant Pharmaceutical Co., Ltd.) and Liraglutide. Saving condition was −20° C.
128 male SD rats with body weight of 200-230 g were randomly divided into sixteen groups, which were respectively:
SD rats with body weight of 200-230 g at SPF level were provided by Lanzhou University Laboratory Animal Center. After rats were quarantined in the room (SPF environment) for one week, model rat and rat in sham-operated group were subject to intraperitoneal injection and anesthesia with 0.6% pentobarbital sodium solution, and operation was performed on a super clean bench after anesthesia. Bilateral ligation was conducted on model rat after the common bile duct was separated, and ligation was not conducted on rat in sham-operated group, but only the common bile duct was separated. Administration was started from the next day of the operation.
Administration was started from the first day of the operation, and subcutaneous injection of compounds 3, 6, 7, 10, 17, 20, 37, 38, 39, 40, 44, 46 and Liraglutide with 50 μg/kg was performed every two days; intraperitoneal injection for the Obeticholic Acid administration group with 7.5 mg/kg was performed every day; as for the normal saline group, injection was performed every day. During the administration, changes in vital signs of rats were observed every day.
After the end of two weeks of administration cycle (14 days), the rats were killed to collect materials for subsequent biological determination experiments. The livers were taken out for HE dye, Sirius Red dye and IHC dye. Image-pro plus and Graph pad software were used for statistics.

[2] = tested on: human hepatic stellate cells (LX-2); test: In vitro inhibition of hepatic fibrosis: expression of activation marker α-SMA in LX-2 cells (Western Blot, β-actin internal reference); assay type: cell-based; conditions: 10.0 μM, 48 hours, negative control (PBS) = 100%
How it was run: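 LX-2 cells grown in DMEM high glucose + 10% FBS to ~70% confluence, then exposed to polypeptides (in PBS) at different doses for 48 h; PBS-only negative control. α-SMA quantified by Western blot densitometry normalised to β-actin, expressed relative to control set at 100%.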

| Substance | ALT in the serum (FIG. 6) [1] | BDL-induced hepatic fibrosis and inflammation (HE, Sirius Red, IHC sections) [1] | collagenous fiber deposition in liver (Sirius Red dyed sections, FIGS. 2, 4) [1] | content of hydroxyproline of the liver (FIG. 7) [1] | α-SMA in liver (IHC dyed sections, FIGS. 3, 5) [1] | Relative expression of α-SMA (α-SMA/β-actin, %) [2] [%] |
| --- | --- | --- | --- | --- | --- | --- |
| His-(D-Ser)-Gln-Gly-Thr-Phe-Thr-Ser-Asp-Tyr-Ser-Lys-Tyr-Leu-Asp-Aib-Lys(PEG2-PEG2-γGlu-CO(CH2)16CO2H)-Arg-Ala-Gln-Asp-Phe-Val-Gln-Trp-Leu-Met-Asn-Thr-Gly-Gly-Pro-Ser-Ser-Gly-Ala-Pro-Pro-Pro-Ser-NH2 (H[dS]QGTFTSDYSKYLD[Aib]K([PEG2′-PEG2′-γGlu-C18 diacid])RAQDFVQWLMNTGGPSSGAPPPS-NH2) [Compound 7] | significantly inhibit | significantly reduce | significantly inhibit | significantly inhibit | significantly inhibit | 40.52 |
| His-(D-Ser)-Gln-Gly-Thr-Phe-Thr-Ser-Asp-Tyr-Ser-Lys-Tyr-Leu-Asp-Lys(PEG2-PEG2-γGlu-CO(CH2)14CH3)-Arg-Arg-Ala-Gln-Asp-Phe-Val-Gln-Trp-Leu-Leu-Asn-Thr-Gly-Gly-Pro-Ser-Ser-Gly-Ala-Pro-Pro-Pro-Ser-NH2 (H[dS]QGTFTSDYSKYLDK([PEG2′-PEG2′-γGlu-Palmitoyl])RRAQDFVQWLLNTGGPSSGAPPPS-NH2) [Compound 40] | significantly inhibit | significantly reduce | significantly inhibit | significantly inhibit | significantly inhibit | 37.55 |
| His-(D-Ser)-Gln-Gly-Thr-Phe-Thr-Ser-Asp-Tyr-Ser-Lys-Tyr-Leu-Asp-Lys(PEG2-PEG2-γGlu-CO(CH2)14CH3)-Arg-Arg-Ala-Gln-Asp-Phe-Val-Gln-Trp-Leu-Met-Asn-Thr-Gly-Gly-Pro-Ser-Ser-Gly-Ala-Pro-Pro-Pro-Ser-NH2 (H[dS]QGTFTSDYSKYLDK([PEG2′-PEG2′-γGlu-Palmitoyl])RRAQDFVQWLMNTGGPSSGAPPPS-NH2) [Compound 6] | significantly inhibit | significantly reduce | significantly inhibit | significantly inhibit | significantly inhibit | 29.19 |
| His-(D-Ser)-Gln-Gly-Thr-Phe-Thr-Ser-Asp-Tyr-Ser-Lys-Tyr-Leu-Asp-Lys(PEG2-PEG2-γGlu-CO(CH2)14CH3)-Arg-Arg-Ala-Gln-Asp-Phe-Val-Gln-Trp-Leu-Nle-Asn-Thr-Gly-Gly-Pro-Ser-Ser-Gly-Ala-Pro-Pro-Pro-Ser-NH2 (H[dS]QGTFTSDYSKYLDK([PEG2′-PEG2′-γGlu-Palmitoyl])RRAQDFVQWL[Nle]NTGGPSSGAPPPS-NH2) [Compound 37] | significantly inhibit | significantly reduce | significantly inhibit | significantly inhibit | significantly inhibit | 29.95 |
| His-(D-Ser)-Gln-Gly-Thr-Phe-Thr-Ser-Asp-Tyr-Ser-Lys-Tyr-Leu-Asp-Lys(PEG2-PEG2-γGlu-CO(CH2)16CO2H)-Arg-Arg-Ala-Gln-Asp-Phe-Val-Gln-Trp-Leu-Leu-Asn-Thr-Gly-Gly-Pro-Ser-Ser-Gly-Ala-Pro-Pro-Pro-Ser-NH2 (H[dS]QGTFTSDYSKYLDK([PEG2′-PEG2′-γGlu-C18 diacid])RRAQDFVQWLLNTGGPSSGAPPPS-NH2) [Compound 39] | significantly inhibit | significantly reduce | significantly inhibit | significantly inhibit | significantly inhibit | 41.68 |
| His-(D-Ser)-Gln-Gly-Thr-Phe-Thr-Ser-Asp-Tyr-Ser-Lys-Tyr-Leu-Asp-Lys(PEG2-PEG2-γGlu-CO(CH2)16CO2H)-Arg-Arg-Ala-Gln-Asp-Phe-Val-Gln-Trp-Leu-Nle-Asn-Thr-Gly-Gly-Pro-Ser-Ser-Gly-Ala-Pro-Pro-Pro-Ser-NH2 (H[dS]QGTFTSDYSKYLDK([PEG2′-PEG2′-γGlu-C18 diacid])RRAQDFVQWL[Nle]NTGGPSSGAPPPS-NH2) [Compound 38] | significantly inhibit | significantly reduce | significantly inhibit | significantly inhibit | significantly inhibit | 40.55 |
| His-(D-Ser)-Gln-Gly-Thr-Phe-Thr-Ser-Asp-Tyr-Ser-Lys-Tyr-Leu-Asp-Ser-Lys(PEG2-PEG2-γGlu-CO(CH2)16CO2H)-Ala-Ala-His-Asp-Phe-Val-Glu-Trp-Leu-Leu-Arg-Ala-NH2 (H[dS]QGTFTSDYSKYLDSK([PEG2′-PEG2′-γGlu-C18 diacid])AAHDFVEWLLRA-NH2) [Compound 17] | significantly inhibit | significantly reduce | significantly inhibit | significantly inhibit | significantly inhibit | 35.38 |

Source: patent US11419918B2, “Treatment of biliary cirrhosis based on oxyntomodulin analogue GLP-1R/GCGR dual-target agonist peptide” (Shenzhen Turier Biotech Co., Ltd., priority 2017, dated 2022)
